# Laboratory results as given in patent US10251889B2, “Substituted pyrazolo[1,5-a]pyrimidine compounds as Trk kinase inhibitors” (Array BioPharma, Inc., priority 2009, dated 2019).
# Target: Jak2 (human Jak2 kinase domain, amino acids 808-1132) (Homo sapiens (Human), UniProt O60674)
# Test: Jak2 inhibition assay (Omnia kinase assay)
# Assay type: biochemical
# Conditions: read-out: Jak2 Enzyme (% inhibition at 1000 nM), Table 1; 1000 nM test compound
# Experimental: The assays described in Examples C, D, E and F for the determination of JAK1, JAK2, JAK3 and Tyk2 kinase activity, respectively, utilized the Omnia® Kinase fluorescence peptide substrate-based technology (Invitrogen). […] The reactions were therefore read at excitation 360 nm and emission was measured at 485 nm every 50 seconds for 45 minutes using a PerkinElmer EnVision Multilabel Plate Reader.
# The final buffer conditions for each of the JAK1, JAK2, JAK3 and Tyk2 assays were as follows: 25 mM HEPES, pH 7.4, 10 mM MgCl2, 0.01% Triton X-100 and 1 mM DTT.
# Two-μL aliquots of these were transferred to a fresh plate for a ten-fold intermediate dilution with assay buffer. Five-μL aliquots of the diluted compounds were then transferred to 20-μL of assay mixtures described in Examples C, D, E and F for a final concentration of DMSO of 2%. […] For each plate, percent of control (POC) values were calculated for each well according to the following equation:
# where Xmax=Average Uninhibited Controls • Xmin=Average Background IC50's were estimated from the POC's using a standard 4-parameter logistic model:
# where A=Minimum Y (Bottom Asymptote) • B=Maximum Y (Top Asymptote) • C=EC50 • D=Slope Factor • X=Compound Concentration (nM) • Y=POC
# The IC50 is defined as the concentration of inhibitor at which the POC equals 50 for the fitted curve.
# Compounds of Formula I were screened for their ability to inhibit Jak2 using the general enzyme inhibition assay method, in which the assay mixture contained 500 μM ATP, 10 μM Omnia® Y7 peptide (Catalog # IVGN KNZ3071C, Invitrogen Corporation, Carlsbad, Calif.) and 4 nM Jak2 in a total volume of 20 μL. Human Jak2 kinase domain comprising amino acids 808-1132 was purchased from Invitrogen Corporation, Carlsbad, Calif. (catalog # IVGN PV4210).
# Sequence of Jak2 (human Jak2 kinase domain, amino acids 808-1132) (O60674 808-1132): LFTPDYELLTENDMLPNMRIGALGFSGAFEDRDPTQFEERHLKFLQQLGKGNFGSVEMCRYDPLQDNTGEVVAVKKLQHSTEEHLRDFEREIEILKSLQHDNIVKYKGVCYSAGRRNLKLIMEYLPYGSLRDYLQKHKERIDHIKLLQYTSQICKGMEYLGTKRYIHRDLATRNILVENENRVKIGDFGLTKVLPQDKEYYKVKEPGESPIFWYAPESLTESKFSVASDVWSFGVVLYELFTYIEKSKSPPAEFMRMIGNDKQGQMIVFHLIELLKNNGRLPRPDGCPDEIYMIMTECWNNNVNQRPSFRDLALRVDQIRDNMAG
row,SMILES,inhibition at 1 µM
1,"COc1ncc(F)cc1[C@H]1CCCN1c1ccn2ncc(C(=O)N3CC(O)C3)c2n1 [Example 139, (R)-(5-(2-(5-fluoro-2-methoxypyridin-3-yl)pyrrolidin-1-yl)pyrazolo[1,5-a]pyrimidin-3-yl)(3-hydroxyazetidin-1-yl)methanone]",-0.4%
2,"COc1ccc(F)cc1[C@H]1CCCN1c1ccn2ncc(C(=O)N[C@H]3CC[C@H](O)CC3)c2n1 [Example 34, 5-((R)-2-(5-fluoro-2-methoxyphenyl)pyrrolidin-1-yl)-N-((trans)-4-hydroxycyclohexyl)pyrazolo[1,5-a]pyrimidine-3-carboxamide]",96.9%
3,"COc1ccc(F)cc1[C@H]1CCCN1c1ccn2ncc(C(=O)NCCN3CCOCC3)c2n1 [Example 54, (R)-5-(2-(5-fluoro-2-methoxyphenyl)pyrrolidin-1-yl)-N-(2-morpholinoethyl)pyrazolo[1,5-a]pyrimidine-3-carboxamide]",23%
4,"COc1ncc(F)cc1[C@H]1CCCN1c1ccn2ncc(C(=O)N[C@H]3CC[C@H](O)C3)c2n1 [Example 154, 5-((R)-2-(5-fluoro-2-methoxypyridin-3-yl)pyrrolidin-1-yl)-N-((1S,3S)-3-hydroxycyclopentyl)pyrazolo[1,5-a]pyrimidine-3-carboxamide]",64.4%
5,"Cn1cc(F)cc([C@H]2CCCN2c2ccn3ncc(C(=O)Nc4cccnc4)c3n2)c1=O [Example 231, (R)-5-(2-(5-fluoro-1-methyl-2-oxo-1,2-dihydropyridin-3-yl)pyrrolidin-1-yl)-N-(pyridin-3-yl)pyrazolo[1,5-a]pyrimidine-3-carboxamide]",26.6%
6,"CNC(=O)c1cnn2ccc(N3C[C@H](O)C[C@@H]3c3cccc(F)c3)nc12 [Example 43, 5-((2R,4R)-2-(3-fluorophenyl)-4-hydroxypyrrolidin-1-yl)-N-methylpyrazolo[1,5-a]pyrimidine-3-carboxamide]",4.2%
7,"Cn1cc(F)cc([C@H]2CCCN2c2ccn3ncc(C(=O)N[C@H]4CC[C@H](O)CC4)c3n2)c1=O [Example 238, 5-((R)-2-(5-fluoro-1-methyl-2-oxo-1,2-dihydropyridin-3-yl)pyrrolidin-1-yl)-N-((trans)-4-hydroxycyclohexyl)pyrazolo[1,5-a]pyrimidine-3-carboxamide]",58.9%
8,"Cn1cc(F)cc([C@H]2CCCN2c2ccn3ncc(C(=O)NC(C)(C)C)c3n2)c1=O [Example 226, (R)—N-tert-butyl-5-(2-(5-fluoro-1-methyl-2-oxo-1,2-dihydropyridin-3-yl)pyrrolidin-1-yl)pyrazolo[1,5-a]pyrimidine-3-carboxamide]",100%
9,"COc1ncc(F)cc1[C@H]1CCCN1c1ccn2ncc(C(=O)NC3CCN(CCO)CC3)c2n1 [Example 159, (R)-5-(2-(5-fluoro-2-methoxypyridin-3-yl)pyrrolidin-1-yl)-N-(1-(2-hydroxyethyl)piperidin-4-yl)pyrazolo[1,5-a]pyrimidine-3-carboxamide]",28.9%
10,"Cc1ncc(F)cc1[C@H]1CCCN1c1ccn2ncc(C(=O)N[C@@H]3CCC[C@H]3O)c2n1 [Example 197, 5-((R)-2-(5-fluoro-2-methylpyridin-3-yl)pyrrolidin-1-yl)-N-((1R,2R)-2-hydroxycyclopentyl)pyrazolo[1,5-a]pyrimidine-3-carboxamide]",3.6%
11,"COc1ccc(F)cc1[C@H]1CCCN1c1ccn2ncc(C(=O)NCC(C)(C)O)c2n1 [Example 49, (R)-5-(2-(5-fluoro-2-methoxyphenyl)pyrrolidin-1-yl)-N-(2-hydroxy-2-methylpropyl)pyrazolo[1,5-a]pyrimidine-3-carboxamide]",17.2%
12,"CC(C)(CF)NC(=O)c1cnn2ccc(N3CCC[C@@H]3c3cc(F)ccc3F)nc12 [Example 40, (R)-5-(2-(2,5-difluorophenyl)pyrrolidin-1-yl)-N-(1-fluoro-2-methylpropan-2-yl)pyrazolo[1,5-a]pyrimidine-3-carboxamide]",41.4%
13,"O=C(NC[C@H](O)CO)c1cnn2ccc(N3CCC[C@@H]3c3cc(F)ccc3C(F)(F)F)nc12 [Example 62, N—((S)-2,3-dihydroxypropyl)-5-((R)-2-(5-fluoro-2-(trifluoromethyl)phenyl)pyrrolidin-1-yl)pyrazolo[1,5-a]pyrimidine-3-carboxamide]",35.2%
14,"COc1ncc(F)cc1[C@H]1CCCN1c1ccn2ncc(C(=O)NC(CO)CO)c2n1 [Example 160, (R)-N-(1,3-dihydroxypropan-2-yl)-5-(2-(5-fluoro-2-methoxypyridin-3-yl)pyrrolidin-1-y1)pyrazolo[1,5-a]pyrimidine-3-carboxamide]",8.5%
15,"COc1ncc(F)cc1[C@H]1CCCN1c1ccn2ncc(C(=O)NCCCCO)c2n1 [Example 151, (R)-5-(2-(5-fluoro-2-methoxypyridin-3-yl)pyrrolidin-1-yl)-N-(4-hydroxybutyl)pyrazolo[1,5-a]pyrimidine-3-carboxamide]",35.6%
16,"O=C(O)CC1CCN(C(=O)c2cnn3ccc(N4CCC[C@@H]4c4cc(F)ccc4F)nc23)CC1 [Example 12, (R)-2-(1-(5-(2-(2,5-difluorophenyl)pyrrolidin-1-yl)pyrazolo[1,5-a]pyrimidine-3-carbonyl)piperidin-4-yl)acetic Acid]",4.5%
17,"CN(C)C(=O)c1cnn2ccc(N3CCC[C@@H]3c3cc(F)ccc3F)nc12 [Example 27, (R)-5-(2-(2,5-difluorophenyl)pyrrolidin-1-yl)-N,N-dimethylpyrazolo[1,5-a]pyrimidine-3-carboxamide]",1.3%

# Now from value to compound:
row,inhibition at 1 µM,SMILES
1,3.6%,"O=C(c1cnn2ccc(N3CCC[C@@H]3c3cncc(F)c3)nc12)N1CCCCC1 [Example 137, (R)-(5-(2-(5-fluoropyridin-3-yl)pyrrolidin-1-yl)pyrazolo[1,5-a]pyrimidin-3-yl)(piperidin-1-yl)methanone]"
2,31.7%,"O=C(NC1(CO)CC1)c1cnn2ccc(N3CCC[C@@H]3c3cc(F)ccc3F)nc12 [Example 16, (R)-5-(2-(2,5-difluorophenyl)pyrrolidin-1-yl)-N-(1-(hydroxymethyl)cyclopropyl)pyrazolo[1,5-a]pyrimidine-3-carboxamide]"
3,6.2%,"CC(C)(CF)NC(=O)c1cnn2ccc(N3CCC[C@@H]3c3cncc(F)c3)nc12 [Example 71, (R)—N-(1-fluoro-2-methylpropan-2-yl)-5-(2-(5-fluoropyridin-3-yl)pyrrolidin-1-yl)pyrazolo[1,5-a]pyrimidine-3-carboxamide]"
4,4.6%,"Cc1ncc(F)cc1[C@H]1CCCN1c1ccn2ncc(C(=O)NC[C@@H](C)O)c2n1 [Example 189, (R)-5-(2-(5-fluoro-2-methylpyridin-3-yl)pyrrolidin-1-yl)-N-((R)-2-hydroxypropyl)pyrazolo[1,5-a]pyrimidine-3-carboxamide]"
5,14.6%,"O=C(NCC(F)(F)F)c1cnn2ccc(N3CCC[C@@H]3c3cncc(F)c3)nc12 [Example 131, (R)-5-(2-(5-fluoropyridin-3-yl)pyrrolidin-1-yl)-N-(2,2,2-trifluoroethyl)pyrazolo[1,5-a]pyrimidine-3-carboxamide]"
6,17.3%,"CC1(NC(=O)c2cnn3ccc(N4CCC[C@@H]4c4cncc(F)c4)nc23)CCC1 [Example 102, (R)-5-(2-(5-fluoropyridin-3-yl)pyrrolidin-1-yl)-N-(1-methylcyclobutyl)pyrazolo[1,5-a]pyrimidine-3-carboxamide]"
7,7.1%,"O=C(NC1(CO)CC1)c1cnn2ccc(N3CCC[C@@H]3c3cncc(F)c3)nc12 [Example 107, (R)-5-(2-(5-fluoropyridin-3-yl)pyrrolidin-1-yl)-N-(1-(hydroxymethyl)cyclopropyl)pyrazolo [1,5-a]pyrimidine-3-carboxamide]"
8,16.1%,"COc1ncc(F)cc1[C@H]1CCCN1c1ccn2ncc(C(=O)NC[C@H](C)O)c2n1 [Example 156, 5-((R)-2-(5-fluoro-2-methoxypyridin-3-y1)pyrrolidin-1-yl)-N-((S)-2-hydroxypropyl)pyrazolo[1,5-a]pyrimidine-3-carboxamide]"
9,9.9%,"O=C(NC[C@@H](O)CO)c1cnn2ccc(N3CCC[C@@H]3c3cc(F)ccc3F)nc12 [Example 26, 5-((R)-2-(2,5-difluorophenyl)pyrrolidin-1-yl)-N—((R)-2,3-dihydroxypropyl)pyrazolo[1,5-a]pyrimidine-3-carboxamide]"
10,6.8%,"O=C(NCC(F)CCl)c1cnn2ccc(N3CCC[C@@H]3c3cncc(F)c3)nc12 (stereo partly drawn) [Example 97, N-(3-chloro-2-fluoropropyl)-5-((R)-2-(5-fluoropyridin-3-yl)pyrrolidin-1-yl)pyrazolo[1,5-a]pyrimidine-3-carboxamide]"
11,26.2%,"O=C(NC1CCC1)c1cnn2ccc(N3CCC[C@@H]3c3cncc(F)c3)nc12 [Example 101, (R)-N-cyclobutyl-5-(2-(5-fluoropyridin-3-yl)pyrrolidin-1-yl)pyrazolo[1,5-a]pyrimidine-3-carboxamide]"
